PubChem BioAssay (NCI)
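Values below derive from 48-hour exposures of cells grown in 96-well plates, with endpoints linearly interpolated between the two concentrations bracketing the appropriate inhibition level. GI50: concentration for 50% inhibition of growth. TGI: concentration producing complete growth inhibition.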

Tests used:
Assay in all cases: NCI anticancer screen, dose series, 48 h
[1] = tested on: HCT-116 colon
[2] = tested on: K-562 leukemia
[3] = tested on: KM12 colon
[4] = tested on: SF-268 CNS
[5] = tested on: SK-MEL-2 melanoma
[6] = tested on: SK-MEL-5 melanoma
[7] = tested on: UACC-257 melanoma
[8] = tested on: UO-31 renal
[9] = tested on: CAKI-1 renal
[10] = tested on: HCT-15 colon

Compound	TGI [1] [µM]	TGI [2] [µM]	TGI [3] [µM]	TGI [4] [µM]	TGI [5] [µM]	TGI [6] [µM]	TGI [7] [µM]	TGI [8] [µM]	TGI [9] [µM]	TGI [10] [µM]	GI50 [9] [µM]	GI50 [10] [µM]	GI50 [2] [µM]	GI50 [3] [µM]	GI50 [4] [µM]	GI50 [5] [µM]	GI50 [6] [µM]	GI50 [7] [µM]	GI50 [8] [µM]	GI50 [1] [µM]
O=C1C(Cl)N(c2ccccc2Cl)C1c1c[nH]c2ccccc12 (stereo not given)	> 100	> 100	> 100	> 100	> 100	> 100	> 100	> 100												
Oc1ccc(C(=C(Br)c2ccccc2)c2ccc(O)cc2)cc1	15.9	9.07	13.5	16.5	18.3	12.5	25.2	19.7	30.8	14.3										
CN1C(=O)CC(=O)N1/C(=C/c1ccccc1)c1ccccc1	> 100	> 100	> 100	> 100	> 100	> 100	> 100	32	62.5											
O=C1c2cc3c(cc2-c2c1c1ccc(Cl)cc1c(=O)n2C[C@H](O)CO)OCO3		> 100	0.618	1.04	1.11	0.114	0.604	0.19	0.192	1.28	< 0.01	0.11	0.0457	0.113	0.0185	0.284	0.0322	0.13	0.0348	
CSCCC(C(=O)O)N(C)C (stereo not given)	> 100	> 100	> 100	> 100	> 100	> 100	> 100	> 100	> 100	> 100										
O=C1c2cc(O)c(O)cc2O[C@H](c2ccc(O)c(O)c2)[C@H]1O	> 100	> 100	> 100	> 100	> 100	> 100	> 100	> 100	> 100	> 100										
C=C(C#N)C(=O)OCC(CC)CC.C=C(C#N)C(=O)OCC(CC)CC.CS(C)=O.CS(C)=O.Nc1c(N=Nc2ccc(-c3ccc(N=Nc4cc(S(=O)(=O)[O-])c5ccccc5c4N)cc3)cc2)cc(S(=O)(=O)[O-])c2ccccc12.[Pt+2]	> 100	> 100	> 100	59.1	50.4	> 77.4	31.8	> 100	53.7	> 69.3	20.4	33.2	32.6	46.6	24.9	21.2	34.1	17.4	> 100	> 65.2
C=CCNC(=O)C(C)C1CCC2(C)C=CC(=O)C(C)=C2C1O (stereo not given)	> 100	> 100	> 100	> 100	> 100	> 100	> 100	> 100	> 100	> 100										
